Laboratory results published in patent US4808618A, “Substituted 1,3-dialkylpyrido[4,3-d]pyrimidine-2,4-diones” (Nippon Zoki Pharmaceutical Co., Ltd., priority 1986, dated 1989).

Tests used:
[1] = test system: PCA (Passive Cutaneous Anaphylaxis) reaction; test: PCA (Passive Cutaneous Anaphylaxis) reaction in rats, anti-allergic effect; type: in vivo, rat (Wister-strain; conditions: 20 mg/kg oral, 1 hour before challenge; Wister-strain male rats; dye absorbance at 620 nm
Method: PCA (Passive Cutaneous Anaphylaxis) reaction in rats was taken as an index to an anti-allergic effect of the compound of the present invention.
In order to perform sensitization, anti-DNP-Asc (dinitrophenylated Ascaris extracts) serum diluted with saline was injected intradermally at 4 sites on the shaved back of groups of 6 Wister-strain male rats (6 weeks of age). 1 hour after oral administration of the test drug, the mixture of equivalent amount of DNP-Asc (5 mg/ml) and 2% Evans blue were intravenously injected to generate PCA reaction. 30 minutes thereafter, rats were killed by decapitation and exsanguinated. The skin was opened in order to evaluate the leakage of blue dye. The obtained skin was dissolved in 2N potassium hydroxide, then 2N phosphoric acid and acetone were added thereto. The amount of dye was determined by measurement of absorbance at 620 nm after centrifugation.

[2] = Acute toxicity test (oral, LD50 by Litchfield-Wilcoxon's method); conditions: mouse, in vivo, ICR-strain male mice, groups of 5, mortality for 14 days
Method: The test compounds were orally administered to groups of 5 ICR-strainmale mice. LD50 value of the compound of the present invention was calculated by the Litchfield-Wilcoxon's method based on mortality for 14 days after drug administration.

**Q.** Which “Inhibition (PCA reaction)” value [1] does the source give for `Cn1c(=O)c2[nH]cnc2n(C)c1=O` [Theophylline, reference compound] here?
**A.** 78.7%

**Q.** Which results are given for `Cn1c(=O)c2c(N)nccc2n(C)c1=O` [Compound 3, 5-amino-1,3-dimethylpyrido[4,3-d]pyrimidine-2,4-dione]?
**A.** LD50 at 336 h [2]: 710 mg/kg; Inhibition (PCA reaction) [1]: 77.3%

**Q.** Which “Inhibition (PCA reaction)” value [1] does the source give for `CCn1c(=O)c2c(NC)nccc2n(CC)c1=O` [Compound 7, 5-methylamino-1,3-diethylpyrido[4,3-d]pyrimidine-2,4-dione] here?
**A.** 72.7%

**Q.** What does the source list for `CC(C)Nc1nccc2c1c(=O)n(C)c(=O)n2C` [Compound 8, 5-isopropylamino-1,3-dimethylpyrido[4,3-d]pyrimidine-2,4-dione]?
**A.** LD50 at 336 h [2]: 700 mg/kg; Inhibition (PCA reaction) [1]: 73.4%

**Q.** Which LD50 at 336 h [2] does the source give for `CNc1nccc2c1c(=O)n(C)c(=O)n2C` [Compound 6, 5-methylamino-1,3-dimethylpyrido[4,3-d]pyrimidine-2,4-dione] here?
**A.** 720 mg/kg

**Q.** What about the “Inhibition (PCA reaction)” value [1] of the same compound?
**A.** 92.0%

**Q.** For `CCn1c(=O)c2c(N)nccc2n(CC)c1=O` [Compound 4, 5-amino-1,3-diethylpyrido[4,3-d]pyrimidine-2,4-dione], which “Inhibition (PCA reaction)” value [1] is on record?
**A.** 89.3%

**Q.** For `Cn1c(=O)c2cnccc2n(C)c1=O` [Compound 1, 1,3-dimethylpyrido[4,3-d]pyrimidine-2,4-dione], which LD50 at 336 h [2] is on record?
**A.** 400 mg/kg

**Q.** What about the “Inhibition (PCA reaction)” value [1] of the same compound?
**A.** 85.3%
